Reference: patent US5128362A, “1-aminomethyl-1,2,3,4-tetrahydronaphthalenes” (Abbott Laboratories, priority 1990, dated 1992)
Where a name gives a salt, the structure may show the parent alone.

target: T1, alpha 2 receptor (Rattus norvegicus, UniProt P22909); assay: Radioligand binding, [3H]rauwolscine, rat cerebral cortices; details: not given
T1 construct: rat cerebral cortices; from tissue; host or cells: rat cerebral cortices
T1 sequence (P22909 1-465): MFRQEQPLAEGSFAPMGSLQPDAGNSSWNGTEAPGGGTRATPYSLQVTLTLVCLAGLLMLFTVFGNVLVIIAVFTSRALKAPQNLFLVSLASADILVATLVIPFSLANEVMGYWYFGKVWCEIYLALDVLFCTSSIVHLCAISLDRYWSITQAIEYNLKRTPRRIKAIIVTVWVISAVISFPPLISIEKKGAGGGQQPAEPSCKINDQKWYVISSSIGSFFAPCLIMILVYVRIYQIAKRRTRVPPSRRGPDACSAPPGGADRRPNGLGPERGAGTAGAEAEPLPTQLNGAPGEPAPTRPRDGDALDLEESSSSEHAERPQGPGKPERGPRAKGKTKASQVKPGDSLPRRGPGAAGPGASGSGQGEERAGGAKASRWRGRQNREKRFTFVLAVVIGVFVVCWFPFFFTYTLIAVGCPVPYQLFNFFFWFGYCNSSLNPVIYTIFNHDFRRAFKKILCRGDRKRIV
Description: (§1) The compounds were assessed for alpha-adrenergic receptor subtype selectivity by use of radioligand binding techniques as described previously (DeBernardis et. al. J. Med. Chem. 28, 1398 (1985)).

| Structure (SMILES) | Ki |
| --- | --- |
| COc1ccc2c(c1)CCCC2CN(C)CCC1CCCC1 (centres unmarked) [Example 6f, 1-((N-methylamino)methyl-N-(2-(cyclopentyl)ethyl))-6-methoxy tetralin hydrochloride] | 6.5 nM |

same assay, conditions: read-out: Ki alpha-2

| Structure (SMILES) | Ki |
| --- | --- |
| COc1ccc2c(c1)CCCC2CN(C)CCc1cccs1 (centres unmarked) [Example 5, 1-((N-Methylamino)methyl-N-(2-(2-thienyl)ethyl))-6-methoxy tetralin methanesulfonate] | 0.8 nM |
| COc1ccc2c(c1)CCCC2CN(C)CCc1cccc(F)c1 (centres unmarked) [Example 6b, 1-((N-methylamino)methyl-N-(2-(m-fluorophenyl)ethyl))-6-methoxy tetralin hydrochloride] | 5 nM |
| COc1ccc2c(c1)CCCC2CN(C)CCc1ccsc1 (centres unmarked) [Example 6d, 1-((N-methylamino)methyl-N-(2-(3-thienyl)ethyl))-6-methoxy tetralin hydrochloride] | 1.5 nM |
| COc1ccc2c(c1)CCCC2CN(C)CCC1CCCS1 (centres unmarked) [Example 6h, 1-((N-methylamino)methyl-N-(2-(2-tetrahydrothienyl)ethyl)) 6-methoxy tetralin hydrochloride] | 3.5 nM |
| CN(CCc1cccs1)CC1CCCc2cc(O)ccc21 (centres unmarked) [Example 7, 1-((N-Methylamino)methyl-N-(2-(2-thienyl)ethyl))-6-hydroxy tetralin hydrochloride] | 1.6 nM |
| COc1ccc2c(c1)CCCC2CN(C)CCc1cccn1C (centres unmarked) [Example 12, 1-((N-Methylamino)methyl-N-(2-(N-methyl-2-pyrrolyl)-ethyl))-6-methoxy tetralin fumarate] | 5 nM |
| CN(CCc1cccs1)CC1CCCc2ccccc21 (centres unmarked) [Example 22, 1-((N-Methylamino)methyl-N-(2-(2-thienyl)ethyl)) tetralin hydrochloride] | 1.3 nM |
| CN(CCc1cccs1)CC1CCCc2c1ccc1c2OCO1 (centres unmarked) [Example 23, 1-((N-Methylamino)methyl-N-(2-(2-thienyl)ethyl))-5,6-methylenedioxy tetralin hydrochloride] | 1.7 nM |
| COc1cc2c(c(OC)c1)C(CN(C)CCc1cccs1)CCC2 (centres unmarked) [Example 26, 1-((N-Methylamino)methyl-N-(2-(2-thienyl)ethyl))-6,8-dimethoxy tetralin hydrochloride] | 0.6 nM |
| COc1ccc2c(c1)C(CN(C)CCc1cccs1)CCC2 (centres unmarked) [Example 27, 1-((N-Methylamino)methyl-N-(2-(2-thienyl)ethyl))-7-methoxy tetralin hydrochloride] | 2 nM |
| CN(CCc1cccs1)CC1CCCc2c1ccc1c2OCCO1 (centres unmarked) [Example 30, 1-((N-Methylamino)methyl-N-(2-(2-thienyl)ethyl))-5,6-ethylenedioxy tetralin hydrochloride] | 4 nM |
| Cc1cc(O)c(O)c2c1C(CN(C)CCc1cccc(F)c1)CCC2 (centres unmarked) [Example 34, 1-((N-Methylamino)methyl-N-(2-(m-fluorophenyl)ethyl))-5,6-dihydroxy-8-methyl tetralin hydrobromide] | 2.6 nM |
| COc1ccc(C)c2c1CCCC2CN(C)CCc1cccs1 (centres unmarked) [Example 36, 1-((N-Methylamino)methyl-N-(2-(2-thienyl)ethyl))-5-methoxy-8-methyl tetralin hydrochloride] | 6.9 nM |
| COc1ccc2c(c1)CCC2CN(C)CCc1cccs1 (centres unmarked) [Example 37, 1-((N-Methylamino)methyl-N-(2-(2-thienyl)ethyl))-5-methoxy indane hydrochloride] | 3.7 nM |
| CCN(CCc1cccs1)CC1CCCc2cc(OC)ccc21 (centres unmarked) [Example 41, 1-((N-Ethylamino)methyl-N-(2-(2-thienyl)ethyl))-6-methoxy tetralin hydrochloride] | 2.9 nM |
| CCN(CCc1cccc(F)c1)CC1CCCc2cc(OC)ccc21 (centres unmarked) [Example 42, 1-((N-Ethylamino)methyl-N-(2-(m-fluorophenyl)ethyl))-6-methoxy tetralin hydrochloride] | 6.6 nM |
| CCN(CCc1ccco1)CC1CCCc2cc(OC)ccc21 (centres unmarked) [Example 43, 1-((N-Ethylamino)methyl-N-(2-(2-furyl)ethyl))-6-methoxy tetralin hydrochloride] | 6 nM |
| CCN(CCc1ccsc1)CC1CCCc2cc(OC)ccc21 (centres unmarked) [Example 44, 1-((N-Ethylamino)methyl-N-(2-(3-thienyl)ethyl))-6-methoxy tetralin hydrochloride] | 5.6 nM |
| CN(CCc1cccs1)CC1CCCc2cc(Cl)ccc21 (centres unmarked) [Example 49, 1-((N-Methylamino)methyl-N-(2-(2-thienyl)ethyl))-6-chloro tetralin hydrochloride] | 10 nM |
| CCCN(CCc1cccs1)CC1CCCc2cc(OC)ccc21 (centres unmarked) [Example 58, 1-((N-Propylamino)methyl)-N-(2-(2-thienyl)ethyl))-6-methoxy tetralin hydrochloride] | 18 nM |

| Structure (SMILES) | Ki |
| --- | --- |
| COc1ccc2c(c1)CCCC2CN(C)CCc1cccc(N)c1 (centres unmarked) [Example 67, 1-((N-Methylamino)methyl-N-(2-(m-aminophenyl)ethyl))-6-methoxy tetralin dihydrochloride] | 6 nM |
| CN(CCc1cccc(N)c1)CC1CCCc2cc(O)ccc21 (centres unmarked) [Example 68, 1-((N-Methylamino)methyl-N-(2-(m-aminophenyl)ethyl))-6-hydroxy tetralin dihydrobromide] | 6 nM |
| CCOc1ccc2c(c1)CCCC2CN(C)CCc1cccc(N)c1 (centres unmarked) [Example 69, 1-((N-Methylamino)methyl-N-(2-(m-aminophenyl)ethyl))-6-ethoxy tetralin dihydrochloride] | 13 nM |
| CN(CCc1cccc(F)c1)CC1CCCc2ccccc21 (centres unmarked) [Example 70, 1-((N-Methylamino)methyl-N-(2-(m-fluorophenyl)ethyl))-tetralin hydrochloride] | 5 nM |
| CN(CCc1cccc(O)c1)CC1CCCc2cc(O)ccc21 (centres unmarked) [Example 82, 1-((N-Methylamino)methyl-N-(2-(m-hydroxyphenyl)ethyl))-6-hydroxy tetralin hydrochloride] | 4 nM |
| COc1ccc2c(c1)CCCC2CN(C)CCc1cccc(O)c1 (centres unmarked) [Example 83, 1-((N-Methylamino)methyl-N-(2-(m-hydroxyphenyl)ethyl))-6-methoxy tetralin hydrochloride] | 8 nM |
| CN(CCc1cccc(F)c1)CC1CCCc2c1ccc(O)c2O (centres unmarked) [Example 85, 1-((N-Methylamino)methyl-N-(2-(m-fluorophenyl)ethyl))-5,6-dihydroxy tetralin hydrochloride] | 1.5 nM |
| COc1ccc2c(c1OC)CCCC2CN(C)CCc1cccs1 (centres unmarked) [Example 86, 1-((N-Methylamino)methyl-N-(2-(2-thienyl)ethyl))-5,6-dimethoxy tetralin hydrochloride] | 3 nM |
| CN(CCc1cccs1)CC1CCCc2c1ccc(O)c2O (centres unmarked) [Example 87, 1-((N-Methylamino)methyl-N-(2-(2-thienyl)ethyl))-5,6-dihydroxy tetralin hydrochloride] | 1.6 nM |
| CN(CCc1ccccc1)CC1CCCc2ccccc21 (centres unmarked) [Example 88, 1-((N-Methylamino)methyl-N-(2-phenethyl)) tetralin hydrochloride] | 2 nM |
| CN(CCc1ccccc1)CC1CCCc2cc(N)ccc21 (centres unmarked) [Example 114, 1-((N-Methylaminomethyl-N-(2-phenylethyl))-6-aminotetralindihydrochloride] | 5.7 nM |
| CN(CCc1cccs1)CC1CCCc2c1ccc(O)c2I (centres unmarked) [Example 115, 1-((N-Methylamino)methyl-N-(2-(2-thienyl)ethyl))-5-iodo-6-hydroxy tetralin hydrochloride] | 3 nM |
| COc1cc2c(cc1C)C(CN(C)CCc1ccco1)CCC2 (centres unmarked) [Example 128, 1-((N-Methylamino)methyl-N-(2-(2-furyl)ethyl))-methoxy-7-methyl tetralin hydrochloride] | 8 nM |
| COc1cc2c(cc1F)C(CN(C)CCc1ccco1)CCC2 (centres unmarked) [Example 141, 1-((N-methylamino)methyl-N-(2-(2-furyl)ethyl))-6-methoxy-7-fluoro tetralin methanesulfonate] | 4.8 nM |
| c1csc(C2CCN(CC3CCCc4c3ccc3c4OCO3)C2)c1 (centres unmarked) [Example 144, 5,6-Methylenedioxy-1-(3-(2-thienyl)pyrrolidino-1-methyl) tetralin methanesulfonate] | 1.2 nM |
| CCN(CCc1cccs1)CC1CCCc2c1ccc1c2OCO1 (centres unmarked) [Example 164, 1-(N-Ethylamino)methyl-N-(2-(2-thienyl)ethyl))-5,6-methylenedioxy tetralin hydrochloride] | 3.7 nM |
| CCN(CCc1cccc(F)c1)CC1CCCc2c1ccc1c2OCO1 (centres unmarked) [Example 165, 1-((N-Ethylamino)methyl-N-(2-m-fluorophenethyl))-5,6-methylenedioxy tetralin hydrochloride] | 3.5 nM |
| CN(CCc1cccc(F)c1)CC1CCCc2c1ccc1c2OCO1 (centres unmarked) [Example 166, 1-((N-Methylamino)methyl-N-(2-m-fluorophenethyl))-5,6-methylenedioxy tetralin methanesulfonate] | 4.5 nM |
| CCN(CCc1cccs1)CC1CCCc2c1ccc1c2OCCO1 (centres unmarked) [Example 168, 1-((N-Ethylamino)methyl-N-(2-(2-thienyl)ethyl))-5,6-ethylenedioxy tetralin hydrochloride] | 6.6 nM |
| Fc1ccccc1C1CCN(CC2CCCc3c2ccc2c3OCO2)C1 (centres unmarked) [Example 176a, 5.6-Methylenedioxy-1-(3-(o-fluorophenyl)pyrrolidino-1-methyl) tetralin methanesulfonate] | 0.6 nM |

system: alpha 2 receptor; assay: as above; details: Ki alpha 1/Ki alpha-2
Description: as §1

| Structure (SMILES) | alpha-2 - Selectivity Ki alpha 1/Ki alpha-2 |
| --- | --- |
| COc1ccc2c(c1)CCCC2CN(C)CCC1CCCS1 (centres unmarked) [Example 6h, 1-((N-methylamino)methyl-N-(2-(2-tetrahydrothienyl)ethyl)) 6-methoxy tetralin hydrochloride] | 430 |
| COc1ccc(C)c2c1CCCC2CN(C)CCc1cccs1 (centres unmarked) [Example 36, 1-((N-Methylamino)methyl-N-(2-(2-thienyl)ethyl))-5-methoxy-8-methyl tetralin hydrochloride] | 95 |
| CCOc1ccc2c(c1)CCCC2CN(C)CCc1cccc(N)c1 (centres unmarked) [Example 69, 1-((N-Methylamino)methyl-N-(2-(m-aminophenyl)ethyl))-6-ethoxy tetralin dihydrochloride] | 98 |
